Experimental data as given in patent US7626077B2, “Glyphosate-resistant plants” (Mertec LLC, priority 2002, dated 2009).

Tests used:
[1] = tested on: regenerated soybean plants transformed with mutant epm1 and/or mutant epm2; assay: Glyphosate spray of regenerated transgenic soybean plants and progenies; type: in vivo; conditions: sprayed at commercial rates, greenhouse
Description: The Bam HI/Sac II fragment (SEQ ID NO: 2) of epm1 vector and the Eco RI fragment (SEQ ID NO: 4) of epm2 vector were used to transform soybean embryogenic callus using an aerosol beam injector as described in U.S. patent application Ser. No. 09/450,226, which is incorporated herein by reference. These fragments comprised mutant epm1 and mutant epm2 which encode (putative) glyphosate-resistant EPSPSs. These fragments were used either alone or, preferably, together.
The transformed tissue is selected for glyphosate resistance using the method described below. First, the beamed embryogenic callus is maintained for one month on B1-30 3Co5My0.01PA medium.
The tissue is then transferred to the same medium but now containing 300 mg/l glyphosate. After a number of passages (up to 5 passages, each passage may last for about a month) on this latter medium, resistant clonal material may be identified. After an optional further few passages on B1-30 3Co5My0.01PA medium but containing 500 mg/l glyphosate, the growing tissue is transferred to a regeneration media as described in U.S. Pat. Ser. No. 09/450,226. Regenerated plants are transferred to pots in a greenhouse. […] Progenies are expected to 3:1 for glyphosate resistance as would be expected for Mendelian inheritance of a transgene.

[2] = tested on: cultured immature corn embryos transformed with SEQ ID NO: 6; assay: Selection of beamed corn embryos on glyphosate-containing medium; type: cell-based, Zea mays; conditions: 540 mg/l glyphosate, DN62540RR medium, aerosol beam transformation with SEQ ID NO: 6
Protocol: The Cla I and Eco RV fragment (SEQ ID NO: 6) of HCEM was introduced into cultured immature corn embryos using an aerosol beam injector according to U.S. patent application Ser. No. 09/450,226. The Cia I-Eco RV fragment comprised the glyphosate-resistant EPSPS coding sequence.
Selection was carried out as follows: the beamed embryos were allowed to remain on DN62A0S20G medium for 5 days.
The beamed embryos were then transferred to DN62A100RR—a medium containing 100 mg/l glyphosate. After two 14-day passages on DN62A100RR, actively growing tissue is transferred to DN62A300RR medium which contains 300 mg/l (Table 3). After two 14-day passages on this medium, tissue was finally transferred to DN62540RR medium which contains 540 mg/i glyphosate (Table 3). […] Regeneration is carried out as described in U.S. patent application Ser. No. 09/450,226.

[3] = tested on: co-cultivated corn embryos; assay: Selection of Agrobacterium co-cultivated corn embryos on glyphosate-containing medium; type: cell-based, Zea mays; conditions: 540 mg/l glyphosate, DN62540RR medium, Agrobacterium-mediated DNA delivery
Protocol: Transformation can also be accomplished using Agrobacterium-mediated DNA delivery. In this case, the transformation and regeneration are performed according to the methods as described in U.S. patent application Ser. No. 09/203,679, which is herein incorporated by reference. Briefly, after culturing on DN62A0S20GLC (Table 2) for five days, co-cultivated embryos are transferred to DN62ALC180RR medium which contains 180 mg/l glyphosate (Table 3). After two 14-day passages on this medium, actively growing tissue is transferred to DN62540RR medium containing 540 mg/l glyphosate (Table 3). […] Regeneration is carried out as described in U.S. Ser. No. 09/203,679.

O=C(O)CNCP(=O)(O)O [glyphosate, N-phosphonomethylglycine]
resistance of regenerated plants and progenies to glyphosate spray [1]: complete resistance | growth of stably transformed tissue on glyphosate medium [2]: continued growth | growth of stably transformed tissue on glyphosate medium [3]: continued growth
